According to US20090280098A1 (priority 2006, published 2009):
Where “and” joins values, the source holds several entries; their conditions need not be identical. Equal entries are not always repeated.

What was measured:
[1] = system: enzymatic activity for fatty acid degradation; details: cellobiose-added feedstuff; cited from earlier work
[2] = system: enzymatic activity for fatty acid synthesis; details: cellobiose-added feedstuff; cited from earlier work
[3] = cellobiose-added high sucrose food for 4 weeks; versus control rats; cited from earlier work
cellooligosaccharide = format: cell-based

Compound	enzymatic activity for fatty acid degradation [1]	enzymatic activity for fatty acid synthesis [2]	body fat ratio [3]	levels of total cholesterol and neutral fat [3]	Amount of produced Lactic acid (cellooligosaccharide)
O=C[C@H](O)[C@@H](O)[C@H](O[C@@H]1O[C@H](CO)[C@@H](O)[C@H](O)[C@H]1O)[C@H](O)CO [cellobiose]	increased	inhibited	reduced	reduced	–
Bifidobacterium	–	–	–	–	1.01 mM and 1.08 mM
